Results published in patent publication US9572760B2, “Uses of compounds and mixtures from Antrodia cinnamomea mycelia” (Simpson Biotech Co., Ltd., priority 2013, dated 2017).

Assays:
[1] = tested on: hypertrophic scarring; assay: Rabbit ear model of hypertrophic scarring: scar and epidermal thickness, histology; type: in vivo, New Zealand white rabbits; details: for mean epidermal thickness (ETI) / mean scar thickness (SEI): 1% w/v applied to wounds every day for 14 days; for mean epidermal thickness (ETI): control 5.08±0.44; for mean scar thickness (SEI): day 14, control 3.71±0.31; for histology: dermis layer of scars: treated for 14 day, 1% w/v
Experimental: The rabbit ear model of hypertrophic scarring was established. In brief, 12 New Zealand white rabbits, weighing 2.5 to 3.0 kg, were prepared for wounding under sterile conditions. Four 1 cm full thickness circular wounds were created down to the cartilage on the ventral side of each ear using a 1 cm punch biopsy. The perichondrial membrane was then dissected off the cartilage using a surgical blade. The test agents including compound B, C and ACM ethanol extract were applied to the wounds of the experimental group ([…] to each wound) every day in concentrations of 1% w/v for 14 days, while the control group received equal amounts of 1% w/v saline.

[2] = tested on: HSC; assay: HSC apoptosis by cell death detection ELISA; type: cell-based; details: 24-80 μM; 24 h, 48 h and 72 h
Experimental: Apoptosis was detected with a sandwich immunoassay system using a cell death detection ELISA kit (Roche Diagnostic Inc.). Roche's Cell Death Detection ELISA kit qualitatively and quantitatively detects the amount of cleaved DNA/histone complexes (nucleosomes) in a given sample using a sandwich-enzyme-immunoassay-based method. The cells (1×10^4 cells/well) were seeded in 100 μl medium in a 96-well plate (Nunc, Denmark) and cultured for 24 h to allow the cells to attach and then treated with three different concentrations (8 μM, 24 μM and 80 μM) of either Compound A, B, C and D for 24 h, 48 h and 72 h and the plates were incubated in 37° C. After incubation, the 96 well plates were centrifuged for 10 min at 200×g and removed supernatant and discard, then added 200 μl of lysis buffer per well using multipipetman and incubated 30 min at room temperature, microplates were centrifuged the lysate at 200×g for 10 min. After the centrifuge, 20 μl of the supernatant was transferred into the streptavidin-coated microplate, then added 80 μl of immunoreagent to each well. The microplate was covered with an adhesive foil and incubated on a shaker under gentle shaking for 2 hour at room temperature. After the incubation period, microplates were washed three times with 250-300 μl incubation buffer and 100 μl ABTS solution was added and incubated for 30 min or until color is sufficient for photometric. ABTS Stop solution was added and absorbance of the samples was measured using ELISA reader at 405 nm, reference wavelength at 490 nm.

[3] = tested on: HSC; assay: HSC proliferation by BrdU assay; type: cell-based; details: 24-80 μM; for HSC proliferation (BrdU assay): 24 h, 48 h and 72 h
Experimental: The Cell Proliferation ELISA, BrdU kit was designed to quantitate cell proliferation bases on the measurement of BrdU incorporation during DNA synthesis in proliferation cells. Briefly, cells (1×10^4 cells/well) were seeded in 100 μl medium in a 96-well plate (Nunc, Denmark) and cultured for 24 h to allow the cells to attach and then treated with three different concentrations ([…]) of either Compound A, B, C and D for 24 h, 48 h and 72 h and the plates were incubated in 37° C. After incubation, the culture medium was labeled with 10 μl/well BrdU (Roche Diagnostic Inc.), and the cells were reincubated for addition 16 h at 37° C. Labeling medium was removed using 10 min centrifuge at 200×g and blow dried. Cells were fixed using 200 μl FixDenat solution and incubated for 30 min at room temperature. Removing the FixDenat solution, 100 μl of anti-BrdU-POD was added and incubated for 90 min at room temperature. After the incubation period, microplates were washed three times with PBS buffer and 100 μl substrate solution was added and incubated for 30 min. Stop solution was added (25 μl of 1 M H2SO4) and absorbance of the samples was measured using ELISA reader at 450 nm.

[4] = tested on: pre-fibrotic genes including α-SMA, TIMP, Collagen type I and TGF-β1; assay: Real-time RT-PCR of pre-fibrotic gene expression in liver of cirrhotic animals; type: in vivo, Wistar rats; details: compound B 7 mg/kg, compound C 14 mg/kg, ACM 320 mg/kg
Experimental: Sample tissues of rat livers were measured about 0.5×0.5 cm in area. Each of tissue was homogenized in 1 mL of TRIzol buffer (Invitrogen, Carlsbad, Calif., USA) with a motorized pestle, and then mixed with 0.5 mL chloroform/isoamyl alcohol (24:1), and was centrifuged at 12,000×g for 10 min at 4° C. The supernatant was transferred to a fresh tube, and isopropanol was added, mix well and stored at −80° C. overnight. The reaction mixture was centrifuged at 12,000×g for 30 min at 4° C. to produce a rude RNA pallet, the pellet was washed with 70% ethanol and air-dried. The concentrations of total RNA were measured by absorbance at 260 nm using a NanoDrop ND-1000 (NanoDrop, USA). Reverse transcription reaction was performed using a commercially available set of High Capacity RNA-to-cDNA Kit (Applied Biosystems, USA). cDNA was prepared from 2 μg of total RNA per 20 μl reaction, according to the manufacturer's instructions—37° C. for 60 minutes, 95° C. for 5 minutes, and hold at 4° C. The resulting cDNA was to a final concentration of 100 ng/μl and constituted a matrix in further experiments. Amplification and detection the gene expression by real-time PCR were performed using StepOne plus Real-time PCR System (Applied Biosystems, USA). Samples were assayed in a 10 μl reaction mixture containing 2 μl of template DNA, 5 μl of 2× TaqMan PCR Master Mix (Applied Biosystems, Life Technologies, Foster City, Calif., USA), 0.5 μl of 20× assay mix containing probe, forward and reverse primer (Applied Biosystems, Life Technologies, Foster City, Calif., USA), whereby qPCR targets with the following information were used: (a) Rat α-SMA, Assay ID Rn01759928_g1, (b) Rat TIMP, Assay ID Rn00587558_m1, (c) Rat TGF-β1, Assay ID Rn00572010_m1, (d) Rat Collagen I, Assay ID Rn 01463838_m1, (e) Rat CuZnSOD, Assay ID Rn00566938_m1, (f) Rat MnSOD, Assay ID Rn00690587_g1, (g) Rat Catalase, Assay ID Rn00560930_m1, (h) Rat Glutathione peroxidase, Assay ID Rn00577994_g1, (i) Rat NADPH oxidase, Assay ID Rn00585380_m1 and (j) Rat GAPDH, Assay ID Rn1462662_g1. To control variation in mRNA concentration, all results were normalized to the housekeeping gene, GAPDH. Relative quantitation was performed using the comparative ΔΔCt method according to the manufacture's instructions. The cycling conditions used were as follows: 50° C. for 2 min, 95° C. for 10 min followed by 40 cycles of 95° C. for 15 s and 60° C. for 1 min each.

| Structure (SMILES) | mean epidermal thickness (ETI) [1] | mean scar thickness (SEI) [1] | histology: dermis layer of scars [1] | apoptosis of HSC (cell death detection assay) [2] | potency of effect on HSC proliferation and apoptosis compared to other compounds [3] | HSC proliferation (BrdU assay) [3] | Collagen type I gene expression in liver [4] | TGF-β1 gene expression in liver [4] | TIMP gene expression in liver [4] | α-SMA gene expression in liver [4] |
| --- | --- | --- | --- | --- | --- | --- | --- | --- | --- | --- |
| CC(C)=CCOc1ccc(C2=C(CC(C)C)C(=O)NC2=O)cc1 [Compound B, 3-isobutyl-4-[4-(3-methyl-2-butenyloxy)phenyl]-1H-pyrrol-2,5-dione] | 2.23±0.31 | 1.93±0.51 | not significantly thickened | apoptosis of HSC | most potent effect | markedly proliferation inhibition | reduced significantly | reduced significantly | reduced significantly | reduced significantly |
| CC(C)=CCOc1ccc(C2=C(CC(C)C)C(=O)N(O)C2=O)cc1 [Compound C, 3-isobutyl-4-[4-(3-methyl-2-butenyloxy)phenyl]-1H-pyrrol-1-ol-2,5-dione] | 3.10±0.14 | 2.10±0.24 | not significantly thickened | apoptosis of HSC |  | markedly proliferation inhibition | reduced significantly | reduced significantly | reduced significantly | reduced significantly |
